Legend:
mPer1 promoter = experiment: NHR-promoter luciferase screen, mPer1 promoter; assay type: cell-based, mouse; conditions: for Luc. act., normalized to lacZ / Normalized Luc. act., normalized to control: Per1 promoter reporter, co-transfected HR, with or without its ligand; for Normalized Luc. act., normalized to control: relative to control; for luciferase activity normalized to lacZ activity and to a control, mPer1: mPer1 promoter-luciferase, CV-1 cells, NHR +/- ligand, control = 1.00
Description: (§1) The use, feasibility, and reproducibility of the functional NHR-promoter screen in a 48-well format have been tested validated. Briefly, there were co-expressed 50 ng of each NHR/NHR homodimer or NHR/RXR heterodimer with 100 ng promoter/luciferase construct and 50 ng of LacZ (as a control for transfection efficiency) in CV-1 cells using Fugene HD (Roche) as a transfection reagent (alternatively or additionally, a CMV-YFP construct can be used as a transfection control). Each of the nuclear hormone receptors that were used in these experiments was cloned into a pcDNA3.1 vector and comprised a C-terminally linked V5H6 tag. Twenty-four hours after transfection, appropriate ligands were added, where applicable, (see Table 5 for various ligands and concentrations and after 48 hrs, samples were assayed for luciferase and LacZ activity. To measure for luciferase activity 15 ul of sample was added to 30 ul of luciferase buffer (20 mM tricine, 1.07 mM MgCarbonate, 2.67 mM MgSulfate, 0.1 mM Naz-EDTA, 5 mM DTT, 5 mM ATP, 0.15 mg/ml CoA, 0.5 mM Luciferin), mixed briefly, and run in a Perkin Elmer Victor 5 luminometer. Thus, the functional NHR-promoter screen was used to observe the transcriptional activity of 29 promoters from various physiological pathways including inflammation, lipid and sugar metabolism, cholesterol transport, xenobiotic metabolism, and circadian rhythm.
(§2) The promoters that facilitate transcription of the indicated gene products that were tested using the protocols described herein are listed in the first row of the table. The nuclear hormone receptors and, where applicable, ligands that were assayed for their transcriptional effects on the promoters are listed in the first column of the table. The data represent the luciferase activity of each sample normalized to both the lacZ activity of that sample and to a control, e.g., no NHR or ligand, as customary in the art. As described previously, these normalizations allow the transcriptional activity of each reporter cell to be compared to other samples.
(§3) Tables 7-40 show the transcriptional effects of the hormone receptors, and, where applicable, ligands (orphan receptors are screened without ligand), on each individual promoter. […] The control data of each table are shown in their last rows.

hMDR1 promoter = experiment: NHR-promoter luciferase screen, hMDR1 promoter; assay type: cell-based, human; conditions: for Luc. act., normalized to lacZ / Normalized Luc. act., normalized to control: MDR1 promoter, HR/ligand component; for hMDR1 promoter reporter activity: transcription factor +/- ligand, control = 1.00
Description: as §1, §2, §3

mADRP promoter = experiment: NHR-promoter luciferase screen, mADRP promoter; assay type: cell-based, mouse; conditions: for Luc. act., normalized to lacZ / Normalized Luc. act., normalized to control: ADRP promoter, HR/ligand component; for mADRP promoter reporter activity: transcription factor +/- ligand, control = 1.00
Description: as §1, §2, §3

mDio2 promoter = experiment: NHR-promoter luciferase screen, mDio2 promoter; assay type: cell-based, mouse; conditions: for Luc. act., normalized to lacZ / Normalized Luc. act., normalized to control: Dio2, HR component without or with its ligand; for mDio2 promoter reporter activity: transcription factor +/- ligand, control = 1.00
Description: as §1, §2, §3

RevErba promoter = experiment: NHR-promoter luciferase screen, RevErba (RVRa) promoter; assay type: cell-based; parameters: key to mRevErba promoter reporter activity / Normalized Luc. act., normalized to control: luciferase activity normalized to lacZ and to control (no NHR/ligand); conditions: for Luc. act., normalized to lacZ / Normalized Luc. act., normalized to control / negative reciprocal of normalized Luc. act. (fold repression; Table 33) / normalized Luc. act. on a logarithmic scale (column without head, Table 33): RVRa promoter; for Luc. act., normalized to lacZ / Normalized Luc. act., normalized to control: HR component without or with ligand; for negative reciprocal of normalized Luc. act. (fold repression; Table 33): given only where activity is below control; for normalized Luc. act. on a logarithmic scale (column without head, Table 33): log10 of activity normalized to control; for mRevErba promoter reporter activity: transcription factor +/- ligand, control = 1.00
Description: Briefly, there were co-expressed 50 ng of each NHR/NHR homodimer or NHR/RXR heterodimer with 100 ng promoter/luciferase construct and 50 ng of LacZ (as a control for transfection efficiency) in CV-1 cells using Fugene HD (Roche) as a transfection reagent (alternatively or additionally, a CMV-YFP construct can be used as a transfection control). Each of the nuclear hormone receptors that were used in these experiments was cloned into a pcDNA3.1 vector and comprised a C-terminally linked V5H6 tag.
as §2
The control data of each table are shown in their last rows.

Row | Substance | Luc. act., normalized to lacZ (mPer1 promoter) | Normalized Luc. act., normalized to control (mPer1 promoter) | luciferase activity normalized to lacZ activity and to a control, mPer1 (mPer1 promoter) | Luc. act., normalized to lacZ (hMDR1 promoter) | Normalized Luc. act., normalized to control (hMDR1 promoter) | hMDR1 promoter reporter activity (hMDR1 promoter) | Luc. act., normalized to lacZ (mADRP promoter) | Normalized Luc. act., normalized to control (mADRP promoter) | mADRP promoter reporter activity (mADRP promoter) | Luc. act., normalized to lacZ (mDio2 promoter) | Normalized Luc. act., normalized to control (mDio2 promoter) | mDio2 promoter reporter activity (mDio2 promoter) | Luc. act., normalized to lacZ (RevErba promoter) | Normalized Luc. act., normalized to control (RevErba promoter) | negative reciprocal of normalized Luc. act. (fold repression; Table 33) (RevErba promoter) | normalized Luc. act. on a logarithmic scale (column without head, Table 33) (RevErba promoter) | mRevErba promoter reporter activity (RevErba promoter)
1 | GR: Glucocorticoid Receptor (NR3C1), cDNA driver | 384.1 | 2.7 | 2.67 | 0.1 | 0.4 | 0.39 | 238.1 | 0.5 | 0.48 | 13.2 | 0.8 | 0.84 | 12.3 | 0.4 | −2.269 | −0.36 | 0.44
2 | NR4a1: NR4a1 (NR4A1; NUR77), nuclear hormone receptor cDNA driver | 503.5 | 3.5 | 3.50 | 0.4 | 1.3 | 1.29 | 1029.3 | 2.1 | 2.07 | 21.8 | 1.4 | 1.39 | 24.6 | 0.9 | −1.1361 | −0.06 | 0.88
3 | AR: Androsterone Receptor (NR3C4), cDNA driver | 123.5 | 0.9 | 0.86 | 0.2 | 0.6 | 0.60 | 600.8 | 1.2 | 1.21 | 19.7 | 1.3 | 1.26 | 13.5 | 0.5 | −2.065 | −0.31 | 0.48
4 | PNR: Photoreceptor-specific Nuclear Receptor (NR2E3), cDNA driver | 93.4 | 0.6 | 0.65 | 0.2 | 0.5 | 0.52 | 381.7 | 0.8 | 0.77 | 14.0 | 0.9 | 0.89 | 7.1 | 0.3 | −3.936 | −0.60 | 0.25
5 | TLX: Tailless (homolog of drosophila) (NR2E1), cDNA driver | 217.6 | 1.5 | 1.51 | 0.2 | 0.7 | 0.70 | 259.2 | 0.5 | 0.52 | 9.5 | 0.6 | 0.60 | 13.5 | 0.5 | −2.079 | −0.32 | 0.48
6 | SF-1: Steroidogenic Factor 1 (NR5A1, SF1), cDNA driver | 536.5 | 3.7 | 3.73 | 0.7 | 2.4 | 2.36 | 1864.1 | 3.7 | 3.75 | 63.2 | 4.0 | 4.02 | 125.0 | 4.5 |  | 0.65 | 4.47
7 | PPARa: Peroxisome proliferator activated receptor α (NR1C1), cDNA driver | 180.7 | 1.3 | 1.25 | 0.2 | 0.5 | 0.51 | 1497.1 | 3.0 | 3.01 | 23.0 | 1.5 | 1.46 | 52.1 | 1.9 |  | 0.27 | 1.86
8 | PPARg: Peroxisome proliferator activated receptor γ (NR1C3), cDNA driver | 154.5 | 1.1 | 1.07 | 0.3 | 0.8 | 0.83 | 891.4 | 1.8 | 1.79 | 35.5 | 2.3 | 2.26 | 40.6 | 1.5 |  | 0.16 | 1.45
9 | ERR1: Estrogen Related Receptor α (NR3B1, ERRa), cDNA driver | 197.1 | 1.4 | 1.37 | 0.4 | 1.2 | 1.20 | 767.6 | 1.5 | 1.54 | 34.6 | 2.2 | 2.20 | 33.3 | 1.2 |  | 0.08 | 1.19
10 | VDR: Vitamin D Receptor (NR1I1), cDNA driver | 97.1 | 0.7 | 0.67 | 0.3 | 0.9 | 0.90 | 766.6 | 1.5 | 1.54 | 23.7 | 1.5 | 1.51 | 27.5 | 1.0 | −1.018 | −0.01 | 0.98
11 | LXRa: Liver X Receptor α (NR1H3), cDNA driver | 100.6 | 0.7 | 0.70 | 0.2 | 0.5 | 0.51 | 1095.7 | 2.2 | 2.20 | 19.0 | 1.2 | 1.21 |  |  |  |  | 
